Reference: ChEMBL document CHEMBL3885881, “DrugMatrix”

Organism: Rattus norvegicus
Assay: DrugMatrix - Regimen: Daily Repeat
Format: toxicity, organism-based, Sprague-Dawley
Design: regimen Daily Repeat, gender Male, age 6-8 weeks
Conditions: in vivo, po, route oral GAVAGE, vehicle .5 % CMC; for ABSOLUTE BASOPHIL / ABSOLUTE EOSINOPHIL / ABSOLUTE LYMPHOCYTE / ABSOLUTE MONOCYTE / ABSOLUTE SEGMENTED NEUTROPHIL / BASOPHIL / EOSINOPHIL / ERYTHROCYTE COUNT / HEMATOCRIT / HEMOGLOBIN / LEUKOCYTE COUNT / LYMPHOCYTE / MEAN CORPUSCULAR HEMOGLOBIN / MEAN CORPUSCULAR HEMOGLOBIN CONCENTRATION / MEAN CORPUSCULAR VOLUME / MONOCYTE / NEUTROPHIL / NUCLEATED RED BLOOD CELLS / PLATELET COUNT: tissue Blood; for ALANINE AMINOTRANSFERASE / ALBUMIN / ALKALINE PHOSPHATASE / ASPARTATE AMINOTRANSFERASE / BLOOD UREA NITROGEN / CARBON DIOXIDE / CHLORIDE / CHOLESTEROL / CREATINE PHOSPHOKINASE / CREATININE / GLUCOSE / LACTATE DEHYDROGENASE / LIPASE / PHOSPHORUS / POTASSIUM / SODIUM / TOTAL BILIRUBIN / TOTAL PROTEIN / URIC ACID: tissue Plasma
[1] = 25 mg/kg, 72 h, dose level Low, time 3 day
[2] = 25 mg/kg, 120 h, dose level Low, time 5 day
[3] = 1500 mg/kg, 72 h, dose level High, time 3 day
[4] = 1500 mg/kg, 120 h, dose level High, time 5 day

Compound: COC(=O)Nc1nc2ccc([S+]([O-])c3ccccc3)cc2[nH]1 (configuration not stated) [OXFENDAZOLE]
- ABSOLUTE BASOPHIL [1]: 0 CELLS/uL
- ABSOLUTE EOSINOPHIL [1]: 48 CELLS/uL
- ABSOLUTE LYMPHOCYTE [1]: 11822 CELLS/uL
- ABSOLUTE MONOCYTE [1]: 187.33 CELLS/uL
- ABSOLUTE SEGMENTED NEUTROPHIL [1]: 2342.67 CELLS/uL
- BASOPHIL [1]: 0%
- EOSINOPHIL [1]: 0.33%
- ERYTHROCYTE COUNT [1]: 6.05 x10E6/uL
- HEMATOCRIT [1]: 36.2%
- HEMOGLOBIN [1]: 13.87 G/DL
- LEUKOCYTE COUNT [1]: 14.4 x10E3/uL
- LYMPHOCYTE [1]: 82%
- MEAN CORPUSCULAR HEMOGLOBIN [1]: 22.93 pg
- MEAN CORPUSCULAR HEMOGLOBIN CONCENTRATION [1]: 38.33 G/DL
- MEAN CORPUSCULAR VOLUME [1]: 59.8 fL
- MONOCYTE [1]: 1.33%
- NEUTROPHIL [1]: 16.33%
- NUCLEATED RED BLOOD CELLS [1]: 0 /100WBC
- PLATELET COUNT [1]: 1268.67 x10E3/uL
- ALANINE AMINOTRANSFERASE [1]: 56 u/L
- ALBUMIN [1]: 4.13 G/DL
- ALKALINE PHOSPHATASE [1]: 355 u/L
- ASPARTATE AMINOTRANSFERASE [1]: 78.67 u/L
- BLOOD UREA NITROGEN [1]: 14 mg/dL
- CARBON DIOXIDE [1]: 25 mmol/L
- CHLORIDE [1]: 99 MEQ/L
- CHOLESTEROL [1]: 78.67 mg/dL
- CREATINE PHOSPHOKINASE [1]: 173.33 u/L
- CREATININE [1]: 0.15 mg/dL
- GLUCOSE [1]: 161.67 mg/dL
- LACTATE DEHYDROGENASE [1]: 153 u/L
- LIPASE [1]: 10 u/L
- PHOSPHORUS [1]: 13.1 mg/dL
- POTASSIUM [1]: 8.18 MEQ/L
- SODIUM [1]: 142.9 MEQ/L
- TOTAL BILIRUBIN [1]: 0.2 mg/dL
- TOTAL PROTEIN [1]: 5.77 G/DL
- URIC ACID [1]: 2.07 mg/dL
- ABSOLUTE BASOPHIL [2]: 0 CELLS/uL
- ABSOLUTE EOSINOPHIL [2]: 0 CELLS/uL
- ABSOLUTE LYMPHOCYTE [2]: 12550 CELLS/uL
- ABSOLUTE MONOCYTE [2]: 0 CELLS/uL
- ABSOLUTE SEGMENTED NEUTROPHIL [2]: 983.33 CELLS/uL
- BASOPHIL [2]: 0%
- EOSINOPHIL [2]: 0%
- ERYTHROCYTE COUNT [2]: 5.35 x10E6/uL
- HEMATOCRIT [2]: 31.93%
- HEMOGLOBIN [2]: 12.77 G/DL
- LEUKOCYTE COUNT [2]: 13.53 x10E3/uL
- LYMPHOCYTE [2]: 93%
- MEAN CORPUSCULAR HEMOGLOBIN [2]: 23.9 pg
- MEAN CORPUSCULAR HEMOGLOBIN CONCENTRATION [2]: 40 G/DL
- MEAN CORPUSCULAR VOLUME [2]: 59.73 fL
- MONOCYTE [2]: 0%
- NEUTROPHIL [2]: 7%
- NUCLEATED RED BLOOD CELLS [2]: 0 /100WBC
- PLATELET COUNT [2]: 856.67 x10E3/uL
- ALANINE AMINOTRANSFERASE [2]: 57.67 u/L
- ALBUMIN [2]: 4.17 G/DL
- ALKALINE PHOSPHATASE [2]: 330.67 u/L
- ASPARTATE AMINOTRANSFERASE [2]: 89 u/L
- BLOOD UREA NITROGEN [2]: 16 mg/dL
- CARBON DIOXIDE [2]: 24 mmol/L
- CHLORIDE [2]: 100.67 MEQ/L
- CHOLESTEROL [2]: 74 mg/dL
- CREATINE PHOSPHOKINASE [2]: 346.33 u/L
- CREATININE [2]: 0.21 mg/dL
- GLUCOSE [2]: 161.67 mg/dL
- LACTATE DEHYDROGENASE [2]: 356.67 u/L
- LIPASE [2]: 9 u/L
- PHOSPHORUS [2]: 12.83 mg/dL
- POTASSIUM [2]: 7.04 MEQ/L
- SODIUM [2]: 141.83 MEQ/L
- TOTAL BILIRUBIN [2]: 0.2 mg/dL
- TOTAL PROTEIN [2]: 5.9 G/DL
- URIC ACID [2]: 2.33 mg/dL
- ABSOLUTE BASOPHIL [3]: 0 CELLS/uL
- ABSOLUTE EOSINOPHIL [3]: 0 CELLS/uL
- ABSOLUTE LYMPHOCYTE [3]: 9253.67 CELLS/uL
- ABSOLUTE MONOCYTE [3]: 174.67 CELLS/uL
- ABSOLUTE SEGMENTED NEUTROPHIL [3]: 671.67 CELLS/uL
- BASOPHIL [3]: 0%
- EOSINOPHIL [3]: 0%
- ERYTHROCYTE COUNT [3]: 5.79 x10E6/uL
- HEMATOCRIT [3]: 34.2%
- HEMOGLOBIN [3]: 13.37 G/DL
- LEUKOCYTE COUNT [3]: 10.1 x10E3/uL
- LYMPHOCYTE [3]: 91.67%
- MEAN CORPUSCULAR HEMOGLOBIN [3]: 23.07 pg
- MEAN CORPUSCULAR HEMOGLOBIN CONCENTRATION [3]: 39.1 G/DL
- MEAN CORPUSCULAR VOLUME [3]: 59.03 fL
- MONOCYTE [3]: 1.67%
- NEUTROPHIL [3]: 6.67%
- NUCLEATED RED BLOOD CELLS [3]: 0 /100WBC
- PLATELET COUNT [3]: 1138.67 x10E3/uL
- ALANINE AMINOTRANSFERASE [3]: 42.33 u/L
- ALBUMIN [3]: 4 G/DL
- ALKALINE PHOSPHATASE [3]: 328.67 u/L
- ASPARTATE AMINOTRANSFERASE [3]: 70.33 u/L
- BLOOD UREA NITROGEN [3]: 15.33 mg/dL
- CARBON DIOXIDE [3]: 27.33 mmol/L
- CHLORIDE [3]: 100.33 MEQ/L
- CHOLESTEROL [3]: 67.67 mg/dL
- CREATINE PHOSPHOKINASE [3]: 217.33 u/L
- CREATININE [3]: 0.17 mg/dL
- GLUCOSE [3]: 160.33 mg/dL
- LACTATE DEHYDROGENASE [3]: 90 u/L
- LIPASE [3]: 9.67 u/L
- PHOSPHORUS [3]: 11.6 mg/dL
- POTASSIUM [3]: 6.25 MEQ/L
- SODIUM [3]: 142.17 MEQ/L
- TOTAL BILIRUBIN [3]: 0.1 mg/dL
- TOTAL PROTEIN [3]: 5.43 G/DL
- URIC ACID [3]: 1.83 mg/dL
- ABSOLUTE BASOPHIL [4]: 0 CELLS/uL
- ABSOLUTE EOSINOPHIL [4]: 0 CELLS/uL
- ABSOLUTE LYMPHOCYTE [4]: 9784.67 CELLS/uL
- ABSOLUTE MONOCYTE [4]: 35.33 CELLS/uL
- ABSOLUTE SEGMENTED NEUTROPHIL [4]: 380 CELLS/uL
- BASOPHIL [4]: 0%
- EOSINOPHIL [4]: 0%
- ERYTHROCYTE COUNT [4]: 5.39 x10E6/uL
- HEMATOCRIT [4]: 32.9%
- HEMOGLOBIN [4]: 13.2 G/DL
- LEUKOCYTE COUNT [4]: 10.2 x10E3/uL
- LYMPHOCYTE [4]: 95.67%
- MEAN CORPUSCULAR HEMOGLOBIN [4]: 24.53 pg
- MEAN CORPUSCULAR HEMOGLOBIN CONCENTRATION [4]: 40.13 G/DL
- MEAN CORPUSCULAR VOLUME [4]: 61.07 fL
- MONOCYTE [4]: 0.33%
- NEUTROPHIL [4]: 4%
- NUCLEATED RED BLOOD CELLS [4]: 0 /100WBC
- PLATELET COUNT [4]: 1442.33 x10E3/uL
- ALANINE AMINOTRANSFERASE [4]: 41 u/L
- ALBUMIN [4]: 4.17 G/DL
- ALKALINE PHOSPHATASE [4]: 331.33 u/L
- ASPARTATE AMINOTRANSFERASE [4]: 79.67 u/L
- BLOOD UREA NITROGEN [4]: 15.33 mg/dL
- CARBON DIOXIDE [4]: 27.67 mmol/L
- CHLORIDE [4]: 101.67 MEQ/L
- CHOLESTEROL [4]: 69.67 mg/dL
- CREATINE PHOSPHOKINASE [4]: 228 u/L
- CREATININE [4]: 0.16 mg/dL
- GLUCOSE [4]: 143 mg/dL
- LACTATE DEHYDROGENASE [4]: 165 u/L
- LIPASE [4]: 9.33 u/L
- PHOSPHORUS [4]: 13.13 mg/dL
- POTASSIUM [4]: 6.91 MEQ/L
- SODIUM [4]: 146.13 MEQ/L
- TOTAL BILIRUBIN [4]: 0.13 mg/dL
- TOTAL PROTEIN [4]: 5.77 G/DL
- URIC ACID [4]: 1.7 mg/dL
